{"source": "patent US4272530A", "about": "“Δ^1,3,5(10) -Estratrienes” (Roussel Uclaf, priority 1977, dated 1981)", "key": {"female mice": {"tested_on": "female mice", "test": "estrogenic (uterotrophic) activity by the method of Rubin, uterus weight", "assay_type": "in vivo", "conditions": "for Weight of uterus: female mice 19-21 days old, killed on 4th day, control 11.4 ± 0.5", "protocol": "The estrogenic activity of the product of Example 1 was also determined by the method of Rubin [Endocrinology, Vol. 49 (1951), p. 429] in which female mice 19-21 days old received once a day for 3 days a subcutaneous injection of the test product. The animals were killed on the 4th day and the uterus was removed, dissected and weighed. The test product was administered in a volume of 0.1 ml of oily solution at doses of 0.01γ, 0.03γ, 0.09γ and 0.27γ."}, "[1]": {"biological_target": "T1, specific uterine reception of estradiol (uterus cytosol) (Mus musculus, UniProt P19785)", "T1 construct": "the uterus was removed and homogenized in a buffered solution; from tissue; host or cells: uterus cytosol (105,000 g supernatant) of immature female mice, 18 to 21 days old", "T1 sequence (P19785 1-599)": "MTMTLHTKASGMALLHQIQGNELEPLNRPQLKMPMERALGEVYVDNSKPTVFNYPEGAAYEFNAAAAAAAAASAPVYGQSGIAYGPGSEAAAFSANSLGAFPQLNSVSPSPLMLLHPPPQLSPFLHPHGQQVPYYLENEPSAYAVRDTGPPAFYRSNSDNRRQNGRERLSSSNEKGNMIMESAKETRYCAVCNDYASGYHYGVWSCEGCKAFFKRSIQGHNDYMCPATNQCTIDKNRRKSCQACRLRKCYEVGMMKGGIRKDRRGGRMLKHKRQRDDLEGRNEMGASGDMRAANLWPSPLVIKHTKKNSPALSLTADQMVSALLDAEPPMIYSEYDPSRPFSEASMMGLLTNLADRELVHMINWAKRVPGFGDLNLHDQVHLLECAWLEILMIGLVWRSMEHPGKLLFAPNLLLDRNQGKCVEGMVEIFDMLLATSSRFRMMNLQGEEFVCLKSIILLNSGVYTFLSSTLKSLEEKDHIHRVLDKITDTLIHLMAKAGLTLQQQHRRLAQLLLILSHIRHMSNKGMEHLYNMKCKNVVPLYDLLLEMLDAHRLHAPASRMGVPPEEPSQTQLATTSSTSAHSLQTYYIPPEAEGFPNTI", "test": "hormonal receptor method of Raynaud et al.: displacement of tritiated estradiol in uterus cytosol", "assay_type": "binding, mice", "protocol": "The estrogenic activity was determined for 11β-vinyl-17α-ethynyl-^1,3,5(10) -estratriene-3,17β-diol was determined by the hormonal receptor method of Raynaud et al. [J. Ster. Biochem., Vol. 6 (1975), p. 615-622]. Immature female mice aged 18 to 21 days old were sacrificed and the uterus was removed and homogenized in a buffered solution of […] of tromethamine, 0.25 M of saccharose and a pH of 7.4 with hydrochloric acid. The homogenate was centrifuged at 105,000 g per hour and the surnageant or cytosol was adjusted to a dilution of 1/25 (weight/volume). […] The radioactivity of the tritiated product R was determined in 2 hours by the technique of adsorption on carbondextran (1.25%-0.625%). The plots were the curves representing the percentage of tritiated product R as a function of the log of the concentration of cold product R or the test product and the I50 straight line parallel to the axis of the abcisses and ordinates [formula] B/T max. is the percentage of tied tritiated product R when the product is not added and B/T min. is the percentage of tied tritiated product R when the maximum amount of cold product R is added."}}}
{"smiles": "C#C[C@]1(O)CC[C@H]2[C@@H]3CCc4cc(O)ccc4[C@H]3[C@@H](C=C)C[C@@]21C", "note": "[Example 1, 11β-vinyl-17α-ethynyl-Δ^1,3,5(10) -estratriene-3,17β-diol]", "values": [{"measurement": "uterotrophic activity", "setting": "female mice; conclusion from Table IV", "value": "clear uterotrophic activity"}, {"measurement": "Weight of uterus", "setting": "female mice; dose 0.01γ subcutaneous once a day for 3 days", "value": "25.8 ± 1.7", "unit": "mg"}, {"measurement": "Weight of uterus", "setting": "female mice; dose 0.03γ subcutaneous once a day for 3 days", "value": "90.1 ± 5.7", "unit": "mg"}, {"measurement": "Weight of uterus", "setting": "female mice; dose 0.09γ subcutaneous once a day for 3 days", "value": "128.8 ± 12.1", "unit": "mg"}, {"measurement": "Weight of uterus", "setting": "female mice; dose 0.27γ subcutaneous once a day for 3 days", "value": "107.6 ± 7.4", "unit": "mg"}, {"measurement": "affinity for specific uterine reception of estradiol compared with estradiol", "setting": "[1]; conclusion from Table III", "value": "greater affinity for specific uterine reception of estradiol than estradiol"}, {"measurement": "ARL (relative affinity of the test product)", "setting": "[1]; immature female mouse uterus cytosol, tritiated estradiol, 25° C. for 5 hours, estradiol = 100", "value": 240}]}
